Measurements as given in patent US9932325B2 (Denali Therapeutics Inc., priority 2015, dated 2018).
“And” between values parts separate entries of the source, which are not always exact repeats. Identical values can stand only once.

Experiments:
LRRK2 G2019S enzyme = LRRK2 G2019S enzyme (Homo sapiens (Human), UniProt Q5S007, G2019S); test: LRRK2 G2019S TR-FRET biochemical assay (LRRKtide substrate); settings: 134 μM ATP
Procedure, shortened: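 Kinase and LRRKtide substrate were preincubated with compound 20 minutes at 23° C, then ATP was added and the reaction ran 60 minutes at 23° C. Detection used 2 nM antibody with 10 mM EDTA in TR-FRET dilution buffer, 60 minutes at 23° C, read by TR-FRET.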

[1] = Metabolic stability in human liver microsomes; format: in vitro ADME; settings: 1 μM compound, 0.5 mg/mL protein, projected hepatic clearance, well-stirred model
Method: Metabolic stability of compounds was evaluated in human liver microsomes (from Corning or XenoTech, LLC) using a 96-well plate assay format. Compounds were incubated at 37° C. at 1 μM final concentration in the microsomal matrix (0.5 mg/mL total protein) in the presence or absence of NADPH cofactor. An NADPH regenerating system, comprised of NADP, MgCl2, isocitric acid, and isocitrate dehydrogenase, was used in the assay. Enzymatic reactions were conducted for 0, 5, 10, 20, 30, or 60 min before termination by addition of acetonitrile containing tolbutamide and labetalol internal standards (100 ng/mL). After shaking for 10 min, plates were subjected to centrifugation (4000 rpm at 4° C.) for 20 min and supernatants were mixed 1:3 with HPLC grade water. Samples were analyzed by LC-MS/MS using appropriate MRM transitions for each analyte and internal standard (IS). Analyte/IS peak area ratios were used to determine percent compound remaining at each time point. Intrinsic clearance (Clint; expressed as mL·min^−1·mg^−1) was calculated from the first order elimination constant (k, min^−1) of test article decay and the volume of the incubation. These values were scaled to intrinsic organ clearance (Clint) using human specific scaling factors (48.8 mg microsomal protein per g liver; 25.7 g liver per kg body weight). Organ Clint was subsequently converted to hepatic clearance (CLhep, mL·min-1·kg-1) using the well-stirred model of hepatic elimination, where Qh is human hepatic blood flow (20.7 mL·min-1·kg-1).
CLhep is the projected human clearance in the liver based on the above in vitro assay. A lower value is indicative of less compound being removed by the liver.

MDR1 (P-glycoprotein) = MDR1 (P-glycoprotein) (Homo sapiens (Human), UniProt P08183); test: MDR1-MDCK permeability, bidirectional assay; format: in vitro ADME; settings: dog, MDR1-MDCK cells, monolayer efflux ratio, pH 7.4, read-out: MDR1 ER
Method: The blood brain barrier (BBB) separates circulating blood from the extracellular fluid of the central nervous system (CNS). The passive membrane permeability (Papp) and MDR1 (P-glycoprotein) substrate efflux potential were determined using the MDR1-MDCK cell line as an in vitro model of the effective permeability of a compound through the BBB. A bidirectional assay was conducted in pre-plated MDR1-MDCK cells using a 12 or 96-well plate in the absence or presence of MDR1 inhibitor (GF120918 or Valspodar). Assays were run in duplicate in transport buffer (HBSS, pH 7.4) for 90 or 120 min (minutes) at 37° C., using a test article concentration of 1 μM. Monolayer integrity was confirmed using Lucifer yellow, and appropriate positive controls for passive permeability and MDR1 transport were included in each experiment. Following incubation, samples from donor and receiver compartments were removed and quenched with acetonitrile containing an appropriate internal standard (IS). Protein was precipitated by centrifugation for 10 min at 3220 g, and supernatants were diluted in ultra-pure water (if necessary) prior to analysis by LC-MS/MS using appropriate MRM transitions for analytes and IS. Papp (apparent permeability expressed in cm/sec [centimeter/second]) values were calculated according to the following equation:
[formula] where VR is the solution volume in the receiver chamber (apical or basolateral side), Area is the surface area for the insert membrane), Time is incubation time expressed in seconds, CR is the peak area ratio (analyte/IS) in the receiver chamber, CA is the average of the initial and final concentrations in the donor chamber, and Co is the initial peak area ratio in the donor chamber. Papp was determined in both the apical to basolateral (A→B) and basolateral to apical (B→A) directions.
Monolayer efflux ratios (ER) were derived using the following equation: […]

Chain of LRRK2 G2019S enzyme (Q5S007 whole entry G2019S): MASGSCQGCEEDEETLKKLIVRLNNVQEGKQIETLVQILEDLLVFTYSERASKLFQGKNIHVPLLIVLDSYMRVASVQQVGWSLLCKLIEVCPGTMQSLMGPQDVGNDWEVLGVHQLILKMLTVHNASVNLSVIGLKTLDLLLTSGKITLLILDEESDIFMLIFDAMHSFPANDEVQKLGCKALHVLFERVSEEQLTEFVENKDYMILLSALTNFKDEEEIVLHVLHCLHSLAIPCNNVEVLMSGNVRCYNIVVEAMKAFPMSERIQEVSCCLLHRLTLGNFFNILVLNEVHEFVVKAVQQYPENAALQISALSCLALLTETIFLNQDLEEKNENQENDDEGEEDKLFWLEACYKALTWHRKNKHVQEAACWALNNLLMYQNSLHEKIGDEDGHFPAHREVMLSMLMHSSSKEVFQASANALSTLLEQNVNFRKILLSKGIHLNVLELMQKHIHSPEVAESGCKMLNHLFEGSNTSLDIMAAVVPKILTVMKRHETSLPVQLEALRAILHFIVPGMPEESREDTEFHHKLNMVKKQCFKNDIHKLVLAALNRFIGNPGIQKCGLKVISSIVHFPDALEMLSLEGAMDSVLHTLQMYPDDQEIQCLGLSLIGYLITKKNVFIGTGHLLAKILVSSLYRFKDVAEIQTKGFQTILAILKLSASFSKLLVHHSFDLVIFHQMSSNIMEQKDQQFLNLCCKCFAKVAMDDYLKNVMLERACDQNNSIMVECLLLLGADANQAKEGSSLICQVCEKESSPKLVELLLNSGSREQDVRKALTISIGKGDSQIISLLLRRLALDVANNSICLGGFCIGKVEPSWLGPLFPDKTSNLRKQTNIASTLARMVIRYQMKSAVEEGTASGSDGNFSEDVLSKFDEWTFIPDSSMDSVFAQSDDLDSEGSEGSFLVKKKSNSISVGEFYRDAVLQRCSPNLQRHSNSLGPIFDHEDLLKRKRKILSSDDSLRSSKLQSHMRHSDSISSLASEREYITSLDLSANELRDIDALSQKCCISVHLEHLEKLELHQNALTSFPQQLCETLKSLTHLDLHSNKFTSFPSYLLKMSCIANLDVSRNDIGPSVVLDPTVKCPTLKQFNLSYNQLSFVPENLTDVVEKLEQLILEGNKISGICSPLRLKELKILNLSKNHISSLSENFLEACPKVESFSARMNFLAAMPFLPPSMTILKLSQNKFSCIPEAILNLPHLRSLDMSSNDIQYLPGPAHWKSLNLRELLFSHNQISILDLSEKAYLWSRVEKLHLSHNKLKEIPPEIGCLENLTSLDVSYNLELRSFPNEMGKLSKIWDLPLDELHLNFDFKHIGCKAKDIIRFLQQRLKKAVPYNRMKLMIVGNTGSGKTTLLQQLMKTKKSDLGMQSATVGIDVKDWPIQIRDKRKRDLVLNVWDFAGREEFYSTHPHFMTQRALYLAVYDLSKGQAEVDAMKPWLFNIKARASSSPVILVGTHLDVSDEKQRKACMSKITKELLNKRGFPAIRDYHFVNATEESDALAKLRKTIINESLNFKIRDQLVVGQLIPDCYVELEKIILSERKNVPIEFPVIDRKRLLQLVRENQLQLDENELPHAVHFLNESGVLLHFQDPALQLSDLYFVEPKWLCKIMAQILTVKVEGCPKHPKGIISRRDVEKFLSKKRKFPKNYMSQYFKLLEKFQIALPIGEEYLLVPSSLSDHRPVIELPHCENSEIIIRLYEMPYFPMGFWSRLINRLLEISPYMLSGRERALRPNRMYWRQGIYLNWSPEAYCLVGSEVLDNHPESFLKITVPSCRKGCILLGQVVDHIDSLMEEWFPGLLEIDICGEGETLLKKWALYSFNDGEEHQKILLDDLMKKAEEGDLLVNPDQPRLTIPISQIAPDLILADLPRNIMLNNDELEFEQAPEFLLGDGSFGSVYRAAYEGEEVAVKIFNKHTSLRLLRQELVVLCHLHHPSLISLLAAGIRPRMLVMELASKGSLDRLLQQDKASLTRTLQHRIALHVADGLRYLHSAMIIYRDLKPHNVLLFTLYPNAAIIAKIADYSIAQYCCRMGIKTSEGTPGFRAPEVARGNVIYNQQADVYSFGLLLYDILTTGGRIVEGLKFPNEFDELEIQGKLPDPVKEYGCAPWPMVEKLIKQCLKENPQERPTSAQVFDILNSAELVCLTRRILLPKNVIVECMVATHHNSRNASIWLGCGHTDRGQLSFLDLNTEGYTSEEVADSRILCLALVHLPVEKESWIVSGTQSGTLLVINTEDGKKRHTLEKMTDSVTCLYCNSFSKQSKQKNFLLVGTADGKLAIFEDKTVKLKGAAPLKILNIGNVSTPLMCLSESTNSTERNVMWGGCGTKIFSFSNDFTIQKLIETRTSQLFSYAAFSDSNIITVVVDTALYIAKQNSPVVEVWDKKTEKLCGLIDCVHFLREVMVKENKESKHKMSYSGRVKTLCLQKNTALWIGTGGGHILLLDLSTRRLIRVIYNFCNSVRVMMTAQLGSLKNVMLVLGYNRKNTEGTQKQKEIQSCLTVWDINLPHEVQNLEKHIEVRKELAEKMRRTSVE
Chain of MDR1 (P-glycoprotein) (P08183 whole entry): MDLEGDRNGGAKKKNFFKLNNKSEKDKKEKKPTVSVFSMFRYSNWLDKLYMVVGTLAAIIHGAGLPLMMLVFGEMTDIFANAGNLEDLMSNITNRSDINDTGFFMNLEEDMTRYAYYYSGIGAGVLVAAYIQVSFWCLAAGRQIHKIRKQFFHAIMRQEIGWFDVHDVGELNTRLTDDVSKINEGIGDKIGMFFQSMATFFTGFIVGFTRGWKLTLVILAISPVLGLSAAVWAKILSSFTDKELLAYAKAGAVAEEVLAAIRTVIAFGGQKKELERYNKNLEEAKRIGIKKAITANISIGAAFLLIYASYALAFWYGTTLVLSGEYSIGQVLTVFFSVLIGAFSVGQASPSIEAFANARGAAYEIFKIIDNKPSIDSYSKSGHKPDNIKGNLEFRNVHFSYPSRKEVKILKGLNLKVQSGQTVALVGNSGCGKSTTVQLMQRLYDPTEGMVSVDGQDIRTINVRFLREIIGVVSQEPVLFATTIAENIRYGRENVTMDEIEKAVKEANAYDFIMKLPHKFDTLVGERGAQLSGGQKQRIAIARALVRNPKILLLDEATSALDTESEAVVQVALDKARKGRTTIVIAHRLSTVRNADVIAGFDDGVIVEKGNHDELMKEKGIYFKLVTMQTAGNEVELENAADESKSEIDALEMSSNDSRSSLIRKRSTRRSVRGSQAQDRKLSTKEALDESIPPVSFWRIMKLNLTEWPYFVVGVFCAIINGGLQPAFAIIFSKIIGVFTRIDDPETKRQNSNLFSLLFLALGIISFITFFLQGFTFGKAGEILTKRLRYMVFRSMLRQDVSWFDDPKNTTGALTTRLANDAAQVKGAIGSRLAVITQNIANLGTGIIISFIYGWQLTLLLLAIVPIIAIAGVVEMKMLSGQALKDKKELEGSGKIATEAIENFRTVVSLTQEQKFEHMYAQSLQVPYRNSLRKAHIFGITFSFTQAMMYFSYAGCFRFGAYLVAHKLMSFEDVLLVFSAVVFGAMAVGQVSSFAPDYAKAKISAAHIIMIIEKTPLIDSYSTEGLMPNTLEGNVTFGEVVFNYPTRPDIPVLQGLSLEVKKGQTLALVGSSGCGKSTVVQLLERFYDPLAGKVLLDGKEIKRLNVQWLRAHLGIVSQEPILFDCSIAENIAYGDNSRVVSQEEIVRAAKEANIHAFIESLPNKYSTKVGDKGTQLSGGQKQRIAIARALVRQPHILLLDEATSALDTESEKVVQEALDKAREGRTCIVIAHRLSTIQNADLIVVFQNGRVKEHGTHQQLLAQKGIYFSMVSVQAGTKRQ

| Structure (SMILES) | IC50 (LRRK2 G2019S enzyme) | Human liver microsomes CLhep [1] | efflux ratio at 1 μM (MDR1 (P-glycoprotein)) |
| --- | --- | --- | --- |
| CNc1nc(Nc2cc(C3(C)CCOC3=O)nn2C2CC2)ncc1C(F)(F)F (single isomer, unassigned) [Compound 155] | < 30 nM and 1.95 nM | 5.519 mL/min/kg |  |
| [2H]C([2H])([2H])n1nc(C(C)(C)n2nccn2)cc1Nc1ncc(C(F)(F)F)c(NCC)n1 [Compound 34, N4-Ethyl-N2-[1-(^2H3)methyl-3-[2-(2H-1,2,3-triazol-2-yl)propan-2-yl]-1H-pyrazol-5-yl]-5-(trifluoromethyl)pyrimidine-2,4-diamine] | < 30 nM and 2.31 nM | 0.75 mL/min/kg | 4.8 |
| CNc1nc(Nc2cn(C(C)(C)c3ncn(C)n3)nc2C)ncc1C(F)(F)F [Compound 218] | < 30 nM and 5.91 nM | 0 mL/min/kg | 86 |
| CCNc1nc(Nc2cn(C(C)(C)C#N)nc2C2CC2)ncc1C(F)(F)F [Compound 118] | < 30 nM and 1.55 nM | 7.81 mL/min/kg | 0.83 |
| CCNc1nc(Nc2cn(C3(C)CCOC3=O)nc2C2CC2)ncc1Br (single isomer, unassigned) [Compound 114] | < 30 nM and 1.05 nM | 16.508 mL/min/kg |  |
| CCNc1nc(Nc2cnn(C3CC(C#N)C3)c2C)ncc1C(F)(F)F (centres unmarked) [Compound 27] |  | 7.81 mL/min/kg | 0.88 |
| CCNc1nc(Nc2cn(C(C)(C)C#N)nc2C2CC2)ncc1Br [Compound 93] | < 30 nM and 1.87 nM | 17.663 mL/min/kg |  |
| CCNc1nc(Nc2cc(C(C)(C)n3nccn3)nn2C2CC2)ncc1C(F)(F)F [Compound 78, N2-[2-cyclopropyl-5-[1-methyl-1-(triazol-2-yl)ethyl]pyrazol-3-yl]-N4-ethyl-5-(trifluoromethyl)pyrimidine-2,4-diamine] | < 30 nM and 3.69 nM | 4.81 mL/min/kg | 2 |
| CCNc1nc(Nc2cc(C3(C)CCOC3=O)nn2C2CC2)ncc1Br (single isomer, unassigned) [Compound 150] | < 30 nM and 1.22 nM | 11.077 mL/min/kg |  |
| CCNc1nc(Nc2cc(C(C)(C)C#N)nn2C2CC2)ncc1Br [Compound 141] | < 30 nM and 3.94 nM | 13.508 mL/min/kg |  |
| CCNc1nc(Nc2cc(C3(C)CCOC3=O)nn2C2CC2)ncc1C(F)(F)F (single isomer, unassigned) [Compound 143] | < 30 nM and 1.21 nM | 7.81 mL/min/kg |  |
| [2H]C([2H])([2H])n1nc(C(C)(C)n2nccn2)cc1Nc1ncc(C(F)(F)F)c(NC2CC2)n1 [Compound 68] | < 30 nM and 2.23 nM | 3.18 mL/min/kg | 4.01 |
| CNc1nc(Nc2cn(C3(C)CCOC3=O)nc2C2CC2)ncc1C(F)(F)F (single isomer, unassigned) [Compound 122] | < 30 nM and 0.72 nM | 9.856 mL/min/kg |  |
| CCNc1nc(Nc2cc(C3(C)CCn4ncnc43)nn2C2CC2)ncc1C(F)(F)F (single isomer, unassigned) [Compound 172] | < 30 nM and 1.47 nM | 19.9 mL/min/kg | 42 |
| CCNc1nc(Nc2cn(C3(C)CCOC3=O)nc2C2CC2)ncc1C(F)(F)F (single isomer, unassigned) [Compound 104] | < 30 nM and 0.96 nM | 11.59 mL/min/kg |  |
| CCNc1nc(Nc2cc(C(C)(C)C#N)nn2C2CC2)ncc1C(F)(F)F [Compound 131] | < 30 nM and 4.98 nM | 2.237 mL/min/kg |  |
| [2H]C([2H])([2H])C([2H])([2H])n1nc(C(C)(C)n2nccn2)cc1Nc1ncc(C(F)(F)F)c(NCC)n1 [Compound 88] | < 30 nM |  |  |
| [2H]C([2H])([2H])Nc1nc(Nc2cn(C(C)(C)C#N)nc2C([2H])([2H])[2H])ncc1C(F)(F)F [Compound 63] | < 30 nM |  |  |
| CCNc1nc(Nc2cnn(C3CN(CC)CCC3(F)F)c2Cl)ncc1C(F)(F)F (single isomer, unassigned) [Compound 205] | < 30 nM |  |  |
| [2H]C([2H])([2H])n1nc(Nc2ncc(C(F)(F)F)c(NCC)n2)cc1C(C)(C)c1ncco1 [Compound 83] | < 30 nM |  |  |
| CCNc1nc(Nc2cnn(-c3cnccn3)c2C2CC2)ncc1C(F)(F)F [Compound 105, N2-(5-cyclopropyl-1-pyrazin-2-yl-pyrazol-4-yl)-N4-ethyl-5-(trifluoromethyl)pyrimidine-2,4-diamine] | < 30 nM |  |  |
| CNc1nc(Nc2cnn(C3C[C@@H]4C[C@@H]4C3)c2C)ncc1C(F)(F)F (some centres unmarked) [Compound 4] | < 30 nM |  |  |
